From patent US8685371B2, “Agents for detecting and imaging cell death” (Cambridge Enterprise Limited, priority 2008, dated 2014) come the findings set out here.

The Kd is the free concentration of one partner at which half of the binding sites on the other are occupied at equilibrium, for simple one-to-one binding.

Test in all cases: Surface plasmon resonance (SPR) binding to phosphatidylserine-coated L1 chip
Assay [1] concerns the target T1, Rattus norvegicus synaptotagmin I C2A domain, wild type (Rattus norvegicus, UniProt P21707).
T1 construct: GST (N); made in house; host or cells: E. coli BL21
The conditions noted are these: FIG. 8; thermal equilibrium SPR data, 1:1 Langmuir binding model, protein 5-95 nM, 37° C., 2 mM CaCl2, pH 7.4; read-out: dissociation constant (KD). The procedure:
(§1) Large multilamellar vesicles (LMVs) were prepared using three types of phospholipids (Phosphatidylserine, PS; Phosphatidylethanolamine, PE and Phosphatidylcholine, PC, Avanti Polar Lipids, Alabaster, Ala., USA). A sample of 2.6 μmol of phospholipids (PS:PE:PC mixture in chloroform; molar ratio 35:50:15) was dried under a gentle stream of nitrogen for half an hour and resuspended in 2.6 mL of C2A binding buffer (HBS=20 mM HEPES, 150 mM NaCl, pH 7.4, containing 2 mM CaCl2), by vigorous vortex mixing.
Surface Plasmon Resonance (SPR) analysis was performed on L1 sensor chips using a Biacore T100 system (Biacore, GE Healthcare). […]
Each protein solution was prepared automatically by the system at varying concentrations from 0 to 100 nM or from 5 nM to 75 nM using automated mix fraction preparation, and all injections were conducted in duplicate in C2A binding buffer at a flow rate of 30 μL min^−1 and 37° C. All concentrations were analyzed in duplicate. Protein affinity for PS was evaluated by estimating the thermal equilibrium affinity dissociation constants (KD), obtained from the response values 4 s before the end of the association phase of the corresponding interaction sensorgrams (FIG. 8). […]

The target in assay [2] is T2, C2Am-AlxAF647: Rattus norvegicus synaptotagmin I C2A domain variant C2Am, S78C (S217C of full-length synaptotagmin I), SEQ ID NO: 1, labelled at cysteine-78 wit (Rattus norvegicus, UniProt P21707, S217C).
T2 construct: GST (N, cleaved yes); linker between GST and C2A (part after the thrombin site) (N); made in house; host or cells: E. coli BL21
The conditions noted are these: 37° C., 2 mM CaCl2, pH 7.4. The source says: (§2) The Rattus norvegicus synaptotagmin sequence was acquired using the NCBI Genbank service (sequence identity NM_001033680; NM_001033680.2) and the C2A domain was selected from this sequence. Three candidate cysteine mutants were selected at: Ser217, Gln154, Asn248 (see FIG. 2). Appropriate primers for mutagenesis were designed with the use of Quikchange Primer Design software. The C2A-containing pGEX-2T vector (GE Healthcare, Chalfont St Giles, UK) was isolated from BL21 E. coli cells and underwent a double restriction digest to confirm its identity. Mutagenesis was performed by the Stratagene QuikChange Site-Directed Mutagenesis kit. E. coli DH5α competent cells were transformed with the mutant plasmid by heat shock and the amplified vector then isolated and sequenced. Finally, E. coli BL21 cells were transformed with the vector by electroporation.
(§3) S217C (position 78 of the C2A domain; position 217 of full-length Synaptotagmin I) mutant was selected as the best expressed site-directed mutant of C2A (C2Am).
The mutant protein (C2Am) was covalently labeled with the fluorochrome Alexa Fluor 647 (AlxAF647), via a reaction between the cysteine-78 residue with the maleimide group of Alexa Fluor 647 C2 maleimide (Invitrogen). Briefly, the protein was reduced using 10 mM DTT for half an hour at room temperature. The protein was then washed in a 5-KDa vivaspin concentrator (Sartorius, Epsom, UK) in HNE buffer (20 mM HEPES, 100 mM NaCl, 5 mM EDTA, pH 7.4). This removed any residual DTT, which interferes with the conjugation reaction. The protein was kept at a concentration in the range 50-100 μM, and approximately a 10-fold molar excess of the fluorescent maleimide dye was added. The reaction was allowed to proceed on a magnetic stirrer at 4° C. overnight. Gel filtration was used to separate the modified protein from unreacted dye. Electrospray ionisation (ESI) mass spectrometry was used to confirm successful modification of the protein, which yielded a single species of approximately 17204 Da (C2Am-AlxAF647). ESI mass spectrometry of Annexin V-Alexa Fluor647™ was also performed. Briefly, samples were desalted using Millipore mC18 Ziptips and eluted with 50% MeCN/0.2% formic acid. Samples were analyzed by direct infusion at a flow rate of […] into a Waters QtofMicro, using 70% MeOH/0.2% formic acid as the mobile phase. Typical settings: capillary 3000V, cone 90V, capillary temperature 80° C., desolvation temperature 150° C., calibration by myoglobin and/or trypsinogen collected later in the same file. Deconvolution was conducted using Waters MassLynx MaxEnt 1 software (Waters Ltd, Manchester, UK). […]

The target of assay [3] is T3, Rattus norvegicus synaptotagmin I C2A domain variant C2Am, S78C (S217C of full-length synaptotagmin I), SEQ ID NO: 1 (Rattus norvegicus, UniProt P21707, S217C).
T3 construct: GST (N, cleaved yes); linker between GST and C2A (part after the thrombin site) (N); made in house; host or cells: E. coli BL21
The conditions noted are these: 37° C., 2 mM CaCl2, pH 7.4.
Excerpt: as §2, §3, §1
Surface Plasmon Resonance (SPR) analysis was performed on L1 sensor chips using a Biacore T100 system (Biacore, GE Healthcare).
In some experiments, the chip flow cells were washed with a 2-min pulse of a mixture of isopropanol/NaOH 50 mM (2:3 volume) at 5 μL, min^−1, and one coated with 5 μL of a suspension of SMVs containing 1 mM of phospholipids (at 1 μL min^−1), generating an average relative response of ca. 2,000 RU (relative units). Unbound multilamellar material was removed from the chip after SMV injection, by applying three 20s regeneration pulses of sodium hydroxide (50 mM, at 20 μL min^−1).
In other experiments, the chip flow cells were washed with two, 30 s pulses of 20 mM, 3-[(3Cholamidopropyl)dimethylammonio]-1-propanesulfonate (CHAPS, at 30 μL min−1), then one flow cell (test) was coated with a suspension of test SMVs (PS:PE:PC) containing 1 mM of phospholipids (at 5 μL min−1), until an average relative response of ca. 5000 RU (relative units) was reached. Unbound multilamellar material was removed from the lipid bilayer after SMV injection, by applying two, 30 s pulses of sodium hydroxide (50 mM, at 30 μL min−1).
Another flow cell was left uncoated as a control path. In some experiments, another flow cell (control) was coated with a suspension of control SMVs (PE:PC) containing 1 mM of phospholipids (at 5 μL min−1), until an average relative response of ca. 5000 RU (relative units). Control SMVs were prepared using PE and PC (molar ratio 77:23), and unbound material removed as above
After a stable baseline had been achieved, the proteins were allowed to interact sequentially with the chip surface of the two flow cells of interest, for 2 min (association phase) and 1 min (dissociation phase) at 30 μL min^−1 or for 60 s (association phase) at 40 μL min^−1 at 37° C. The phospholipid bilayer was regenerated using a 15 s or 20 s pulse of HBS containing 10 mM NaEDTA, or (HBS, 20 mm EDTA, pH 7.4) at 40 μL min^−1, after each individual injection.
Each protein solution was prepared automatically by the system at varying concentrations from 0 to 100 nM or from 5 nM to 75 nM using automated mix fraction preparation, and all injections were conducted in duplicate in C2A binding buffer at a flow rate of 30 μL min^−1 and 37° C. All concentrations were analyzed in duplicate. […]

The mark [4] stands for this setting: kinetic analysis of SPR data, read-out: KD (kinetics).

Values joined by “and” are separate entries in the source; they are usually repeats but may differ in a detail not shown here. Equal entries are not always repeated. Where two headings read alike, the source gives them in different places.

T3 sequence (P21707 140-267 S217C): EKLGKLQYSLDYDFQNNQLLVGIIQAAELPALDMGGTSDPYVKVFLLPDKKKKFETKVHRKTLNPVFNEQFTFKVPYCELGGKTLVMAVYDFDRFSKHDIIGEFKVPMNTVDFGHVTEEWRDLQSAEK
T2 sequence (P21707 140-267 S217C): as above
T1 sequence (P21707 141-260 limits assumed): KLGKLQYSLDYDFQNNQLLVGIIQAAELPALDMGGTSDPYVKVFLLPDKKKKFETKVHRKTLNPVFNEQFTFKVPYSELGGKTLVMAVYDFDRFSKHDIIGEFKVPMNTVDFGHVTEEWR

Regarding Phosphatidylserine, the dissociation constant Kd was 48.5 ± 3.5 nM in assay [1]; 71 ± 6.9 nM in assay [2] (affinity analysis of SPR data, read-out: KD (affinity)); 87.9 nM in assay [2] (setting [4]); 49.4 ± 4.9 nM in assay [3] (FIG. 8, thermal equilibrium SPR data, 1:1 Langmuir binding model, protein 5-95 nM, read-out: dissociation constant (KD)); 55.4 ± 3.5 nM in assay [3] (affinity analysis of SPR data, duplicate injections, listed as PS, read-out: KD (affinity)); ~55 nM and 55.4 nM in assay [3] (affinity analysis of SPR data, duplicate injections, read-out: KD (affinity)). Moreover, the dissociation constant (Kd) in assay [3] (setting [4]) came out at 54.2 nM. Moreover, the “ka (kinetics)” value worked out at 2.14e+06 M⁻¹ s⁻¹ in assay [2] (kinetic analysis of SPR data) and 2.01e+06 M⁻¹ s⁻¹ in assay [3] (kinetic analysis of SPR data). Further, the “kd (kinetics)” value stood at 0.188 s⁻¹ in assay [2] (kinetic analysis of SPR data) and 0.110 s⁻¹ in assay [3] (kinetic analysis of SPR data).
